For 21 compounds, insecticidal activity and pest or weed control results are on record in patent US9227923B2, “Pesticidal carboxamides” (Bayer Intellectual Property GmbH, priority 2009, dated 2016).

Structures are written as SMILES.

This test concerns Tobacco Cutworm (Spodoptera litura) Larvae. As to the kind of experiment: Test against tobacco cutworm (Spodoptera litura) larvae, leaf dip. Type of test: in vivo. The following applies: active compound concentration of 100 ppm, third instar larvae, after 7 days; for pest or weed control at 100 ppm: Spodoptera litura, foliar, 168 h, read-out: insecticidal activity. The protocol:
Solvent: 3 parts by weight of dimethylformamide
Emulsifier: 1 part by weight of polyoxyethylene alkyl phenyl ether
Leaves of sweet potato were immersed in the test solution at the appropriate concentration, and the leaves were dried in air. The leaves were then placed in a petri dish having a diameter of 9 cm, and ten Spodoptera litura at third instar larvae were released therein. The petri dishes were placed in a temperature-controlled chamber at 25° C. After 2 days and 4 days more sweet potato leaves were added. After 7 days, the number of dead larvae was counted to calculate the insecticidal activity. An insecticidal activity of 100% means that all larvae were killed, whereas an insecticidal activity of 0% means that no larva was killed.

`CCc1cc(C(F)(C(F)(F)F)C(F)(F)F)cc(C)c1NC(=O)c1ccc(CN(C)C(=O)c2cccnc2Cl)cc1` [Compound 5-189] came in with an insecticidal activity of 100%.
`CC(=O)NCc1ccc(C(=O)Nc2c(Cl)cc(C(F)(C(F)(F)F)C(F)(F)C(F)(F)F)cc2Cl)cc1` (stereo not drawn) [Compound 5-322] came in with an insecticidal activity of 100%.
`CCc1cc(C(F)(C(F)(F)F)C(F)(F)F)cc(C)c1NC(=O)c1ccc(CNC(=O)CC2CC2)c([N+](=O)[O-])c1` [Compound 5-117] yielded an insecticidal activity of 100%.
The same measure, in the same setting: the same measure for `CCC(=O)NCc1cc(C(=O)Nc2c(C)cc(C(F)(C(F)(F)F)C(F)(F)F)cc2CC)ccc1-n1cncn1` [Compound 12-4]: 100%; for `Cc1cc(C#N)ccc1C(=O)Nc1c(Cl)cc(C(F)(C(F)(F)F)C(F)(F)F)cc1Cl` [Compound I-25]: 100%.
The same measure, in the same setting: as for `CCc1cc(C(F)(C(F)(F)F)C(F)(F)F)cc(C)c1NC(=O)c1ccc(CNC(C)=O)c2ccccc12` [Compound 6-2], the figure is 100%; as for `CCc1cc(C(F)(C(F)(F)F)C(F)(F)F)cc(C)c1NC(=O)c1ccc(CNC(=O)c2ccc(Cl)cc2)cc1` [Compound 5-39], 100%.
As to `CCc1cc(C(F)(C(F)(F)F)C(F)(F)F)cc(C)c1NC(=O)c1ccc2c(c1)CCC2NC(C)=O` (stereo not drawn) [Compound 10-2, 1-acetamide-N-[2-ethyl-4-(1,1,1,2,3,3,3-heptafluoropropan-2-yl)-6-methylphenyl]indane-5-carboxamide], the pest or weed control at 100 ppm was 100%.
For `CCc1cc(C(F)(C(F)(F)F)C(F)(F)F)cc(C)c1NC(=O)c1ccc(CNC(=O)CC(F)(F)F)cc1Cl` [Compound 5-68], the insecticidal activity is 100%.
Consider `O=C(Nc1c(Cl)cc(C(F)(C(F)(F)F)C(F)(F)F)cc1Cl)c1ccc(I)c(Cl)c1` [Compound A-7, 3-chloro-N-[2,6-dichloro-4-(1,1,1,2,3,3,3-heptafluoropropan-2-yl)phenyl]-4-iodobenzamide], for which the pest or weed control at 100 ppm was 100%.
`CCc1cc(C(F)(C(F)(F)F)C(F)(F)F)cc(C)c1NC(=O)c1ccc(CNC(=O)CC2CC2)c2ccccc12` [Compound 6-5] returned an insecticidal activity of 100%.
Still for that read-out and setting: as for `CCc1cc(C(F)(C(F)(F)F)C(F)(F)F)cc(C)c1NC(=O)c1ccc(CNC(=O)C2CC2)c(C(F)(F)F)c1` [Compound 5-108], the figure is 100%; as for `Cc1cc(C(F)(C(F)(F)F)C(F)(F)F)cc(C)c1NC(=O)c1ccc(CNC(=O)CC2CC2)cc1F` [Compound 5-24], 100%; as for `CCc1cc(C(F)(C(F)(F)F)C(F)(F)F)cc(C)c1NC(=O)c1ccc(CNC(=O)c2cccc(Cl)c2)cc1` [Compound 5-38], 100%.
As to `CCc1cc(C(F)(C(F)(F)F)C(F)(F)F)cc(C)c1NC(=O)c1ccc(CNC(=O)CC(F)(F)F)nc1` [Compound 8-6], the insecticidal activity turned out to be 100%.
Consider `CCc1cc(C(F)(C(F)(F)F)C(F)(F)C(F)(F)F)cc(C)c1NC(=O)c1ccc(CNC(=O)CC2CC2)c(Br)c1` (stereo not drawn) [Compound 5-160], for which the insecticidal activity is listed as 100%.
On the same count and under the same terms, the same measure for `CCC(=O)NCc1ccc(C(=O)Nc2c(C)cc(C(F)(C(F)(F)F)C(F)(F)F)cc2CC)cc1I` [Compound 5-191]: 100%; for `CCc1cc(C(F)(C(F)(F)F)C(F)(F)F)cc(C)c1NC(=O)c1ccc(CNC(C)=O)c(C)c1` [Compound 5-99]: 100%.
Same read-out and setting: as for `CCc1cc(C(F)(C(F)(F)F)C(F)(F)F)cc(C)c1NC(=O)c1ccc(C#N)cc1F` [Compound I-3], the figure is 100%; as for `CCC(=O)NCc1ccc(C(=O)Nc2c(C)cc(C(F)(C(F)(F)F)C(F)(F)F)cc2C)cc1` [Compound 5-3], 100%; as for `CCc1cc(C(F)(C(F)(F)F)C(F)(F)F)cc(C)c1NC(=O)c1ccc(CNC(=O)CC(F)(F)F)c(F)c1F` [Compound 5-55], 100%.
